What was measured:
[1] = conventional probes, short wavelength excitation light; cited from earlier work
[2] = Changes with time in fluorescence intensity after addition of zinc ion; settings: 5 μM compound, zinc ion 5 μM or 50 μM, 100 mM HEPES pH 7.5
Protocol: Zinc ion (final concentration 5 μM or 50 μM) was added in 100 mM HEPES (pH 7.5) containing 5 μM Compound 6, Compound 12, or ACF-1 (a compound having a cyclic polyamine moiety described as Compound (20) in Example 1 in Japanese Patent Application No. (Hei) 11-40325) to measure fluorescence intensity. The fluorescence intensity was measured at the excitation wavelength of 491 nm and the fluorescence wavelength of 513 nm for Compound 6, the excitation wavelength of 492 nm and the fluorescence wavelength of 514 nm for Compound 12, and the excitation wavelength of 495 nm and the fluorescence wavelength of 515 nm for ACF-1. In the figure, the ordinate axis represents relative fluorescence intensity. […] Accordingly, the use of the compound according to the present invention enables very quick detection of zinc, and also enables the detection of rapid change in the concentration of zinc.

[3] = Selectivity for zinc ions: fluorescence intensity in buffer containing various metal ions; settings: 1 μM compound
Protocol: Compound 6 obtained in Example 1 and Compound 12 obtained in Example 2 were used to evaluate selectivity for zinc ions. 5 μM of Compound 6 or Compound 12 was added in 100 mM HEPES buffer (pH 7.5) containing various metal ions (5 μM or 5 mM). The fluorescence intensity was measured at the excitation wavelength of 491 nm and the fluorescence wavelength of 513 nm for Compound 6, and the excitation wavelength of 492 nm and the fluorescence wavelength of 514 nm for Compound 12. The results are shown in FIG. 1 (Compound 6) and FIG. 2 (Compound 12). 1 μM of Compound 21 was added in 100 mM HEPES buffer (pH 7.5) containing various metal ions (1 μM or 5 mM), and the fluorescence intensity was measured at the excitation wavelength of 505 nm and the fluorescence wavelength of 522 nm.
In the figures, the fluorescence intensities on the ordinate axis are shown as numerical values with addition of each metal ion relative to the fluorescence intensity without addition of metal ion which is taken as 1.

[4] = Changes in fluorescence intensity with relation to pH changes; type: physicochemical; settings: pH of around 7.4 (intracellular pH)
Protocol: Changes in fluorescence intensity of Compound 12, Compound 21, and zinc complexes thereof were investigated with relation to pH changes. The fluorescence intensity was measured at the excitation wavelength of 492 nm and the fluorescence wavelength of 514 nm for Compound 12, and the excitation wavelength of 505 nm and the fluorescence wavelength of 522 nm for Compound 21.
Buffers used are as follows.
100 mM Cl2CHCOOH—Cl2CHCOONa buffer (pH 2.0)
100 mM ClCH2COOH—ClCH2COONa buffer (pH 3.0)
100 mM CHES buffer (pH 8.5)

Question: For `COc1cc(NS(=O)(=O)c2ccc(C)cc2)c2ncccc2c1` [TSQ], which excitation wavelength [1] is on record?
Answer: 367 nm

Question: For `CCOC(=O)COc1cc(NS(=O)(=O)c2ccc(C)cc2)c2nc(C)ccc2c1` [Zinquin], which excitation wavelength [1] is on record?
Answer: 368 nm

Question: For `CN(C)c1cccc2c(S(=O)(=O)NCCN3CCNCCNCCNCC3)cccc12` [Dansylaminoethylcyclen], which excitation wavelength [1] is on record?
Answer: 323 nm

Question: For `CN1CCN(C)CCN(c2ccc(-c3c4ccc(=O)cc-4oc4cc(O)ccc34)cc2)CCN(C)CC1` [ACF-1], which “increase of fluorescence intensity with time after zinc ion addition” value [2] is on record?
Answer: not instantly increased

Question: With `O=C1C=C2Oc3cc(O)c(Cl)cc3C(c3ccc(NCCN(Cc4ccccn4)Cc4ccccn4)cc3C(=O)O)C2C=C1Cl` (centres unmarked) [Compound 21] as the molecule, how does the selectivity for zinc ([3]; 100 mM HEPES buffer pH 7.5, various metal ions 1 μM or 5 mM) read?
Answer: high selectivity

Question: And the “effect of sodium, potassium, calcium, magnesium on the increase in fluorescence intensity caused by zinc” value ([3]; HEPES pH 7.5)?
Answer: did not affect

Question: And the “increase in fluorescence intensity on addition of sodium, potassium, calcium and magnesium” value ([3]; metal ions at high concentration (5 mM), HEPES pH 7.5)?
Answer: almost no increase

Question: What about the “stability of fluorescence intensity to pH changes” value [4] of the same molecule?
Answer: more stable than Compound 12

Source: US7074823B2, “Fluorescent probe for zinc” (Daiichi Pure Chemical Co., Ltd., priority 2000, dated 2006)
